Experimental data: patent US20220088195A1, “Prevention or mitigation of T-cell bispecific antibody-related adverse effects” (Hoffmann-La Roche Inc., priority 2020, published 2022)

Test system: CD4+ and CD8+ T cells
Assay: T cell activation (CD25, CD69 by FACS) in SKM-1 killing assay with HLA-A2 WT-1-TCB, dasatinib added after 24 hours
Assay type: cell-based, human
Settings: 48 hours; 100 nM dasatinib added at 24h; 10 nM HLA-A2 WT-1-TCB
Protocol: FIG. 3. In vitro killing assay set-up and timelines. PBMCs were co-cultured with SKM-1 target cells (E:T=10:1) and 10 nM HLA-A2 WT-1-TCB. Dasatinib (100 nM) was added after 24 hours of activation. PBMCs were labelled with CellTrace™ Violet (CTV) to allow T cell proliferation assessment.
FIG. 4. T cell activation. CD25 and CD69 expression on CD4+ and CD8+ T cells was measured by FACS after 24h and 48h of activation in the presence and absence of dasatinib, according to the assay of FIG. 3. (A) CD25 expression on CD8+ T cells, (B) CD25 expression on CD4+ T-cells, (C) CD69 expression on CD8+ T cells, (D) CD69 expression on CD4+ T cells.
To evaluate if dasatinib could act as a rapid and potent inhibitor of activated T cells, we first stimulated PBMCs on SKM-1 tumor cells with HLA-A2 WT-1-TCB for 24 hours. We then supplemented these activated effector cells with 100 nM dasatinib (FIG. 3).
Upon addition of 100 nM dasatinib at 24h, expression of early activation marker CD69 and late activation marker CD25 on CD4+ and CD8+ T cells at 48 hours was found at an intermediate level between expression measured at 24 hours and expression measured at 48 hours in samples with no dasatinib treatment (FIG. 4).

Cc1nc(Nc2ncc(C(=O)Nc3c(C)cccc3Cl)s2)cc(N2CCN(CCO)CC2)n1 [dasatinib, N-(2-chloro-6-methylphenyl)-2-[[6-[4-(2-hydroxyethyl)-1-piperazinyl]-2-methyl-4-pyrimidinyl]amino]-5-thiazole carboxamide monohydrate]
CD25 and CD69 expression on CD4+ and CD8+ T cells: rapidly blocked the expression of phenotypic activation markers
